Active and inactive are the calls of the source. The rule behind the calls is not given here.
How the values were obtained:
Leishmania infantum [1] = test: (§1) Antileishmanial activity against stationary phase of Leishmania infantum MHOM/MA/67/ITMAP263 promastigotes infected in orally dosed BALB/c mouse assessed as decrease in parasitic load in liver administered via gavage bid for 5 days on 7th day post infection and measured on day 30 by limiting dilution assay; format: functional
Leishmania infantum [2] = test: Antileishmanial activity against Leishmania infantum MHOM/MA/67/ITMAP263 promastigotes infected in BALB/c mouse peritoneal macrophages assessed as decrease in parasitic infection index incubated for 72 hrs by light microscopy; format: functional, organism-based
Leishmania infantum [3] = test: (§2) Antileishmanial activity against stationary phase of Leishmania infantum MHOM/MA/67/ITMAP263 infected in BALB/c mouse assessed as decrease in parasitic load in liver at 25 mg/kg/day administered orally via gavage as bid for 5 days on 7th day post infection and measured on day 30 by limiting dilution assay relative to control; format: functional; conditions: MHOM/MA/67/ITMAP263, po
Leishmania infantum [4] = test: as §2, with “12.5” for “25”; format: functional; conditions: MHOM/MA/67/ITMAP263, po
[5] = Selectivity index, ratio of CC50 for mouse peritoneal macrophages to EC50 for Leishmania infantum MHOM/MA/67/ITMAP263 promastigotes infected in BALB/c mouse peritoneal macrophages; format: toxicity; conditions: read-out: Ratio CC50/EC50
Leishmania infantum [6] = test: as §2, with “MHOM/MA/67/ITMAP263 promastigotes” for “MHOM/MA/67/ITMAP263”, “50” for “25”; format: functional; conditions: MHOM/MA/67/ITMAP263, po
Leishmania infantum [7] = test: Antileishmanial activity against Leishmania infantum MHOM/MA/67/ITMAP263 promastigotes infected in BALB/c mouse peritoneal macrophages assessed as decrease in parasitic infection index at 48 uM incubated for 72 hrs by light microscopy relative to control; format: functional; conditions: MHOM/MA/67/ITMAP263, 72 h
Leishmania infantum [8] = test: as §1, with “in” for “in orally dosed”, “at 50 mg Sb5+/kg/day, im once daily” for “administered via gavage bid”; format: functional, organism-based

O=C(O[C@@H]1Cc2c(O)cc(O)cc2O[C@@H]1c1cc(O)c(O)c(O)c1)c1cc(O)c(O)c(O)c1 [EPIGALOCATECHIN GALLATE]
inhibition (Leishmania infantum [1]): Dose-dependent effect
ED50 (Leishmania infantum [1]; MHOM/MA/67/ITMAP263, po): 12.4 mg/kg/day
ED90 (Leishmania infantum [1]; MHOM/MA/67/ITMAP263, po): 21.5 mg/kg/day
inhibition (Leishmania infantum [2]): Dose-dependent effect
EC50 (Leishmania infantum [2]; MHOM/MA/67/ITMAP263, 72 h): 2600 nM
inhibition in vivo at 25 mg/kg/day (Leishmania infantum [3]): 93.6%
inhibition in vivo at 12.5 mg/kg/day (Leishmania infantum [4]): 47.5%
selectivity ratio [5]: 168
inhibition in vivo at 50 mg/kg/day (Leishmania infantum [6]): 98.7%
inhibition at 48 µM (Leishmania infantum [7]): 97.7%

Meglumine antimoniate
inhibition (Leishmania infantum [8]): Active
